Assay results reported in ChEMBL document CHEMBL4049438, “Discovery and Optimization of Isoquinoline Ethyl Ureas as Antibacterial Agents” (J Med Chem, 2017).
Values after ≈ are worked out from the molar mass of the structure shown. Values belong to the compound of their own block, whether it stands above or below them.

What was measured:
[1] = Octanol-phosphate buffer partition coefficient, logD of compound at pH 7.4 by LC/UV analysis; type: physicochemical
[2] = system: Mus musculus; test: Unbound AUC in mouse at 30 mg/kg, po after 24 hrs by LC-MS/MS analysis; type: ADME, organism-based; conditions: in vivo
[3] = molecular target: hERG (KCNH2) (Homo sapiens, UniProt Q12809); test: Inhibition of human ERG expressed in CHO cells at 10 uM after 3 mins at -80 mV holding potential by Qpatch assay; type: cell-based; conditions: CHO cells expressing human ERG
Sequence of hERG (KCNH2) (Q12809 whole entry): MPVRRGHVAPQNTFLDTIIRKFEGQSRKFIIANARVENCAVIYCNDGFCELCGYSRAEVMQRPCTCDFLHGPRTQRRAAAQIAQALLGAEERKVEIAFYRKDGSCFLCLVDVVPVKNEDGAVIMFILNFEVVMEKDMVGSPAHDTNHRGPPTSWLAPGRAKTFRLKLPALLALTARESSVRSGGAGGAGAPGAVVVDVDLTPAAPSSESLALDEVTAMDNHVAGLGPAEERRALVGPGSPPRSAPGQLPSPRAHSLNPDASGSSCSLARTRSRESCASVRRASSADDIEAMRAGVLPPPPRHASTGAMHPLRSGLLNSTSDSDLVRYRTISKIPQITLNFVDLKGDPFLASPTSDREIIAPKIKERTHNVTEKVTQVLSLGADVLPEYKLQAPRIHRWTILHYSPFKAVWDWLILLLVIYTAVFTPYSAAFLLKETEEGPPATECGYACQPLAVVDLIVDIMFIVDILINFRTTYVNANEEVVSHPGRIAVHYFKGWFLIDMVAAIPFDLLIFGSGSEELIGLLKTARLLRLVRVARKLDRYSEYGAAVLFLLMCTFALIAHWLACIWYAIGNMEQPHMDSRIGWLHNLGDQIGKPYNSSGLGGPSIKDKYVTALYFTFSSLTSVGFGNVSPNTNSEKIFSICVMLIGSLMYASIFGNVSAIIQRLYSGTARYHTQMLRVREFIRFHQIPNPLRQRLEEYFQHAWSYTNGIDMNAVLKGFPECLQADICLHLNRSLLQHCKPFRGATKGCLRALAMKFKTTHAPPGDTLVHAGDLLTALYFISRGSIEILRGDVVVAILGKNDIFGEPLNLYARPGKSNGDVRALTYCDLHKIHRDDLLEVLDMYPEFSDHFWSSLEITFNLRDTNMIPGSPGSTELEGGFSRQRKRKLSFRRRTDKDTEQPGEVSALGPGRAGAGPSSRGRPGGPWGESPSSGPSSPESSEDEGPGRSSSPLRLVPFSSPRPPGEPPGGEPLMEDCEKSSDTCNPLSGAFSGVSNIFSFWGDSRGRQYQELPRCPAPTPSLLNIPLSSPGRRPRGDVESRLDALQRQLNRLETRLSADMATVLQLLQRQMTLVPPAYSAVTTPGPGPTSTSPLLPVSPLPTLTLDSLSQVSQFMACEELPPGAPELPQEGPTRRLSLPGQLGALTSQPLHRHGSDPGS

[4] = system: Staphylococcus aureus; test: Antibacterial activity against methicillin-sensitive Staphylococcus aureus A-1178 infected in neutropenic mouse assessed as change in bacterial burden in thighs at 30 mg/kg, po administered every 2.75 hrs for 2 times measured 6.5 hrs post infection; type: functional
[5] = AUC in mouse at 30 mg/kg, po after 24 hrs by LC-MS/MS analysis; type: ADME, organism-based; design: time < 24 hr, dose 30 mg/kg, route oral; conditions: in vivo
[6] = system: Staphylococcus aureus; test: Antibacterial activity against Staphylococcus aureus ATCC 29213 by broth microdilution method; type: functional
[7] = Protein binding to mouse plasma by rapid equilibrium dialysis method; type: ADME, cell-free; conditions: read-out: PPB (converted)
[8] = Inhibition of Staphylococcus aureus topoisomerase 4 subunit ParC/ParE relaxation expressed in Escherichia coli BL21 (DE3) using supercoiled pBR322 DNA as substrate after 1 hr by agarose gel electrophoresis
[9] = system: Staphylococcus aureus; test: Antibacterial activity against methicillin-sensitive Staphylococcus aureus A-1178 by broth microdilution method; type: functional
[10] = molecular target: DNA gyrase (Staphylococcus aureus, UniProt P0A0K8+P20831)
Description: Inhibition of Staphylococcus aureus N-terminal His6-tagged DNA gyrase subunit GyrA/GyrB supercoiling activity expressed in Escherichia coli BL21 (DE3) using relaxed pBR322 DNA as substrate after 1 hr by agarose gel electrophoresis

[11] = Inhibition of Escherichia coli DNA topoisomerase 4 subunit ParC/ParE relaxation expressed in Escherichia coli BL21 (DE3) using supercoiled pBR322 DNA as substrate after 1 hr by agarose gel electrophoresis
[12] = Inhibition of Streptococcus pneumoniae DNA gyrase subunit GyrA/GyrB supercoiling activity expressed in Escherichia coli BL21 (DE3) using relaxed pBR322 DNA as substrate after 1 hr mins by agarose gel electrophoresis
[13] = system: Streptococcus pneumoniae; test: Antibacterial activity against fluoroquinolone-resistant Streptococcus pneumoniae A-70 harboring topoisomerase gyrA S81F mutant/parc S79F mutant/parE I440V mutant by broth microdilution method; type: functional
[14] = system: Staphylococcus aureus; test: Antibacterial activity against methicillin/fluoroquinolone-resistant Staphylococcus aureus A-798 harboring topoisomerase gyrA S84L mutant/grlA S80F/Glu84V mutant by broth microdilution method; type: functional
[15] = system: Enterococcus faecalis; test: Antibacterial activity against Enterococcus faecalis ATCC 29212 by broth microdilution method; type: functional
[16] = system: Escherichia coli; test: Antibacterial activity against Escherichia coli ATCC 25922 by broth microdilution method; type: functional
[17] = system: Haemophilus influenzae; test: Antibacterial activity against Haemophilus influenzae A-921 by broth microdilution method; type: functional
[18] = Inhibition of Haemophilus influenzae DNA gyrase subunit GyrA/GyrB supercoiling activity expressed in Escherichia coli BL21 (DE3) using relaxed pBR322 DNA as substrate after 1 hr mins by agarose gel electrophoresis
[19] = system: Staphylococcus aureus; test: Selectivity ratio of IC50 for Staphylococcus aureus topoisomerase 4 subunit ParC/ParE relaxation to IC50 for Staphylococcus aureus N-terminal His6-tagged DNA gyrase subunit GyrA/GyrB supercoiling activity
[20] = system: Enterococcus faecium; test: Antibacterial activity against vancomycin/fluoroquinolone-resistant Enterococcus faecium A-949 harboring topoisomerase gyrA E88K mutant/parC S80R mutant by broth microdilution method; type: functional
[21] = system: Escherichia coli; test: Antibacterial activity against TolC deficient Escherichia coli by broth microdilution method; type: functional
[22] = Inhibition of fluoroquinolone-resistant Staphylococcus aureus clinical isolate DNA gyrase subunit GyrB/GyrA S84L mutant supercoiling activity using relaxed pBR322 DNA as substrate after 1 hr by agarose gel electrophoresis
[23] = Inhibition of Streptococcus pneumoniae DNA topoisomerase 4 subunit ParC/ParE relaxation expressed in Escherichia coli BL21 (DE3) using supercoiled pBR322 DNA as substrate after 1 hr mins by agarose gel electrophoresis
[24] = system: Streptococcus pyogenes; test: Antibacterial activity against Streptococcus pyogenes ATCC 19615 by broth microdilution method; type: functional
[25] = molecular target: DNA topoisomerase 2-alpha (Homo sapiens, UniProt P11388); test: Inhibition of human DNA topoisomerase 2-alpha
Sequence of DNA topoisomerase 2-alpha (P11388 whole entry): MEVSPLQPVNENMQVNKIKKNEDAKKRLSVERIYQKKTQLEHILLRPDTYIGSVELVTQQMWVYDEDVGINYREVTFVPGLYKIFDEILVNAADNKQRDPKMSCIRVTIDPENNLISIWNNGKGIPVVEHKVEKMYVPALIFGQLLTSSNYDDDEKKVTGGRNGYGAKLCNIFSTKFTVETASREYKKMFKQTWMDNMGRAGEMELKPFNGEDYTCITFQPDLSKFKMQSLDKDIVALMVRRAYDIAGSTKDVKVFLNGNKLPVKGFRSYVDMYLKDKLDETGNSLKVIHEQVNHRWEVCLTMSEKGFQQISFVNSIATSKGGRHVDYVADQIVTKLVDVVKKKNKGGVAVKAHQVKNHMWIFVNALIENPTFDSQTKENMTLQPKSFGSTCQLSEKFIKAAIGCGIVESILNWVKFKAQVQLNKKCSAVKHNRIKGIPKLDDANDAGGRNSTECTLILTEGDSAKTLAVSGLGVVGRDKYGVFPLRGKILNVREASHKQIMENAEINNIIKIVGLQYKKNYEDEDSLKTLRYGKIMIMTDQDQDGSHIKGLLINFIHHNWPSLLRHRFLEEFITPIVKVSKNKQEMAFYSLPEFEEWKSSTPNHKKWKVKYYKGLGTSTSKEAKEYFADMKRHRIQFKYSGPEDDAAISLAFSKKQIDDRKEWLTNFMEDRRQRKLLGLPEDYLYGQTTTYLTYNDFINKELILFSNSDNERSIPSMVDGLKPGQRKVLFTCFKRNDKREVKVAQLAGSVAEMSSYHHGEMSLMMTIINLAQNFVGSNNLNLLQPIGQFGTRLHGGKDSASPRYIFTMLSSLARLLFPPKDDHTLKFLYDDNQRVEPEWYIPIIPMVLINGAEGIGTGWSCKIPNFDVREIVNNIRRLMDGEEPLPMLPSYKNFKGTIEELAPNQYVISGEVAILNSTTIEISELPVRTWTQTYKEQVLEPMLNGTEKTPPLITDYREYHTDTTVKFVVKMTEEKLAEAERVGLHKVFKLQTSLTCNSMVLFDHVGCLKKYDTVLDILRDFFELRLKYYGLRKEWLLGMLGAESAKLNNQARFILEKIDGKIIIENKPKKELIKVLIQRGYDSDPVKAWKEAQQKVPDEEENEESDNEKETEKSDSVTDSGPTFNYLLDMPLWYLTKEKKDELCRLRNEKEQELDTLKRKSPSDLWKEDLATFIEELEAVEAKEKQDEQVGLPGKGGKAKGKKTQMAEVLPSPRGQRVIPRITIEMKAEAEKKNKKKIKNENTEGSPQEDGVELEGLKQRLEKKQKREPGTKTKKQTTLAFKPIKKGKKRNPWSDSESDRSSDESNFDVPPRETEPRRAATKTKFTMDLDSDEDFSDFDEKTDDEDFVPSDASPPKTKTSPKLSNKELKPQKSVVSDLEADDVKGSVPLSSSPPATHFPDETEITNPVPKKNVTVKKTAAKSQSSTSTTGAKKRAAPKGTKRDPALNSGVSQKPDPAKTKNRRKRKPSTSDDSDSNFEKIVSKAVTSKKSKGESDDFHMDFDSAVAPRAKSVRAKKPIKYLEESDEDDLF

[26] = system: Moraxella catarrhalis; test: Antibacterial activity against Moraxella catarrhalis A-894 by broth microdilution method; type: functional
[27] = system: Streptococcus pneumoniae; test: Antibacterial activity against Streptococcus pneumoniae ATCC 49619 by broth microdilution method; type: functional
[28] = Inhibition of Escherichia coli N-terminal His6-tagged DNA gyrase subunit GyrA/GyrB supercoiling activity expressed in Escherichia coli BL21 (DE3) using relaxed pBR322 DNA as substrate after 1 hr by agarose gel electrophoresis
[29] = system: Escherichia coli; test: Selectivity ratio of IC50 for Escherichia coli DNA topoisomerase 4 subunit ParC/ParE relaxation to IC50 for Escherichia coli N-terminal His6-tagged DNA gyrase subunit GyrA/GyrB supercoiling activity
[30] = Inhibition of Haemophilus influenzae DNA topoisomerase 4 subunit ParC/ParE relaxation expressed in Escherichia coli BL21 (DE3) using supercoiled pBR322 DNA as substrate after 1 hr mins by agarose gel electrophoresis
[31] = Dissociation constant, pKa of the compound by pH metric assay; type: physicochemical
[32] = AUC in mouse at 100 mg/kg, po after 24 hrs by LC-MS/MS analysis; type: ADME, organism-based; design: time < 24 hr, dose 100 mg/kg, route oral; conditions: in vivo
[33] = system: Mus musculus; test: Unbound AUC in mouse at 100 mg/kg, po after 24 hrs by LC-MS/MS analysis; type: ADME, organism-based; conditions: in vivo
[34] = Cmax in Wistar rat at 2 mg/kg, po administered as suspension up to 24 hrs by LC-MS/MS analysis; type: ADME, organism-based; design: dose 2 mg/kg, route oral; conditions: in vivo
[35] = Clearance in Wistar rat at 0.5 mg/kg, iv administered as solution up to 24 hrs by LC-MS/MS analysis; type: ADME, organism-based; conditions: in vivo
[36] = system: Staphylococcus aureus; test: Antibacterial activity against methicillin-sensitive Staphylococcus aureus A-1178 infected in neutropenic mouse assessed as change in bacterial burden in thighs at 10 mg/kg, po administered every 2.75 hrs for 2 times measured 6.5 hrs post infection; type: functional
[37] = Oral bioavailability in Wistar rat at 2 mg/kg administered as suspension up to 24 hrs by LC-MS/MS analysis; type: ADME, organism-based; conditions: in vivo
[38] = Inhibition of Escherichia coli DNA gyrase subunit GyrA/GyrB R136H mutant supercoiling activity expressed in Escherichia coli BL21 (DE3) using relaxed pBR322 DNA as substrate after 1 hr mins by agarose gel electrophoresis
[39] = Half life in Wistar rat at 0.5 mg/kg, iv administered as solution up to 24 hrs by LC-MS/MS analysis; type: ADME, organism-based; conditions: in vivo
[40] = Tmax in Wistar rat at 2 mg/kg, po administered as suspension up to 24 hrs by LC-MS/MS analysis; type: ADME, organism-based; conditions: in vivo
[41] = Volume of distribution in steady state in Wistar rat at 0.5 mg/kg, iv administered as solution up to 24 hrs by LC-MS/MS analysis; type: ADME, organism-based; conditions: in vivo, read-out: Vdss
[42] = system: Staphylococcus aureus; test: Antibacterial activity against methicillin-sensitive Staphylococcus aureus A-1178 infected in neutropenic mouse thigh infection model assessed as decrease in bacterial load in thighs administered po every 5.5 hrs for 4 times measured after 24 hrs; type: functional, organism-based
[43] = AUC in Wistar rat at 0.5 mg/kg, iv administered as solution up to 24 hrs by LC-MS/MS analysis; type: ADME, organism-based; design: dose 0.5 mg/kg, time < 24 hr, route intravenous; conditions: in vivo
[44] = Solubility of compound in citrate buffer at pH 4; type: physicochemical
[45] = Solubility of compound in phosphate buffer at pH 7; type: physicochemical
[46] = AUC in Wistar rat at 2 mg/kg, po administered as suspension up to 24 hrs by LC-MS/MS analysis; type: ADME, organism-based; design: dose 2 mg/kg, time < 24 hr, route oral; conditions: in vivo
[47] = system: Staphylococcus aureus; test: Antibacterial activity against methicillin-sensitive Staphylococcus aureus A-1178 infected in neutropenic murine thigh infection model assessed as decrease in bacterial load in thighs administered po 22 hrs post infection measured 24 hrs post infection; type: functional, organism-based

- logD [1]: 2.6
- fAUC [2]: 15 ng·h/mL
- AUC at 24 h [5]: 120 ng·h/mL
- MIC [6]: 0.5 µg/mL (≈ 1.32 µM)
- fraction unbound [7]: 0.123
- IC50 [8]: 2000 nM
- MIC [9]: 0.5 µg/mL (≈ 1.32 µM)
- IC50 [10]: 8 nM
SMILES: CCNC(=O)Nc1cc2c(-c3ccnc(C)c3)ccc(CNC(C)=O)c2cn1
- inhibition at 0.05 h, 10 µM [3]: 4%
- Activity [4]: 0 deltalog10CFU

- logD [1]: 3
- AUC at 24 h [32]: 14000 ng·h/mL
- fAUC [33]: 630 ng·h/mL
- MIC [6]: 0.125 µg/mL (≈ 0.286 µM)
- fraction unbound [7]: 0.045
- IC50 [8]: 2000 nM
- MIC [9]: 0.125 µg/mL (≈ 0.286 µM)
- IC50 [10]: 8 nM
SMILES: CCNC(=O)Nc1cc2c(-c3ccnc(C)c3)ccc(CNC(=O)OCCOC)c2cn1
- inhibition at 0.05 h, 10 µM [3]: 20%
- Activity [4]: -1.3 deltalog10CFU

The remaining lines, values behind:

SMILES: CCNC(=O)Nc1cc2c(-c3ccnc(C)c3)ccc(Nc3ccc(C)nc3)c2cn1
- IC50 [11]: 2000 nM
- IC50 [12]: 125 nM
- MIC [13]: 0.125 µg/mL (≈ 0.303 µM)
- MIC [14]: ≤ 0.03 µg/mL
- MIC [15]: ≤ 0.03 µg/mL
- MIC [16]: > 16 µg/mL
- Activity [4]: -0.2 deltalog10CFU
- MIC [17]: 0.25 µg/mL (≈ 0.606 µM)
- IC50 [18]: 30 nM
- MIC [6]: ≤ 0.03 µg/mL
- Ratio IC50 [19]: 16
- MIC [20]: 0.06 µg/mL (≈ 0.145 µM)
- MIC [21]: 0.5 µg/mL (≈ 1.21 µM)
- IC50 [22]: < 4 nM
- IC50 [23]: 30 nM
- IC50 [8]: 125 nM
- MIC [24]: 0.125 µg/mL (≈ 0.303 µM)
- IC50 [25]: > 256000 nM
- MIC [26]: 0.25 µg/mL (≈ 0.606 µM)
- MIC [27]: 0.125 µg/mL (≈ 0.303 µM)
- IC50 [10]: 8 nM
- IC50 [28]: 30 nM
- Ratio IC50 [29]: 60
- IC50 [30]: 125 nM

SMILES: CCNC(=O)Nc1cc2c(-c3ccnc(C)c3)ccc(COC(=O)N3CCN(C)CC3)c2cn1
- logD [1]: 3.1
- inhibition at 0.05 h, 10 µM [3]: 15%
- pKa [31]: 7
- AUC at 24 h [32]: 9200 ng·h/mL
- fAUC [33]: 480 ng·h/mL
- Activity [4]: -0.3 deltalog10CFU
- MIC [6]: 0.5 µg/mL (≈ 1.08 µM)
- fraction unbound [7]: 0.052
- IC50 [8]: 500 nM
- MIC [9]: 0.5 µg/mL (≈ 1.08 µM)
- IC50 [10]: 8 nM

SMILES: CCNC(=O)Nc1cc2c(-c3ccnc(C)c3)ccc(CNC(=O)OC)c2cn1
- logD [1]: 3.1
- IC50 [11]: 8000 nM
- Cmax [34]: 287 ng/mL
- clearance [35]: 32 mL/min/kg
- fAUC [2]: 1590 ng·h/mL
- inhibition at 0.05 h, 10 µM [3]: 67%
- Activity [36]: -2.5 deltalog10CFU
- bioavailability [37]: 30%
- IC50 [12]: 500 nM
- MIC [13]: 1 µg/mL (≈ 2.54 µM)
- IC50 [38]: 125 nM
- half-life [39]: 36 min
- MIC [14]: 0.06 µg/mL (≈ 0.152 µM)
- MIC [15]: 0.25 µg/mL (≈ 0.635 µM)
- MIC [16]: > 16 µg/mL
- Activity [4]: -3.5 deltalog10CFU
- Tmax [40]: 15 min
- Vd [41]: 0.65 L/kg
- Activity [42]: Dose-dependent effect
- MIC [17]: 2 µg/mL (≈ 5.08 µM)
- AUC at 24 h [5]: 45300 ng·h/mL
- MIC [6]: 0.06 µg/mL (≈ 0.152 µM)
- MIC [20]: 1 µg/mL (≈ 2.54 µM)
- MIC [21]: 1 µg/mL (≈ 2.54 µM)
- IC50 [22]: < 4 nM
- AUC at 24 h [43]: 261 ng·h/mL
- IC50 [23]: 125 nM
- fraction unbound [7]: 0.035
- IC50 [8]: 2000 nM
- MIC [24]: 0.5 µg/mL (≈ 1.27 µM)
- MIC [9]: 0.06 µg/mL (≈ 0.152 µM)
- IC50 [25]: > 256000 nM
- MIC [26]: 0.5 µg/mL (≈ 1.27 µM)
- solubility [44]: 340 µg/mL (≈ 864 µM)
- MIC [27]: 0.5 µg/mL (≈ 1.27 µM)
- IC50 [10]: 8 nM
- solubility [45]: 20 µg/mL (≈ 50.8 µM)
- AUC at 24 h [46]: 319 ng·h/mL
- IC50 [28]: 30 nM
- IC50 [30]: 2000 nM

SMILES: CC(=O)NC[C@H]1CN(c2ccc(N3CCOCC3)c(F)c2)C(=O)O1
- Activity [47]: Dose-dependent effect
